Reference: publication PMC11475281, “A Novel Liver Cancer-Selective Histone Deacetylase Inhibitor Is Effective against Hepatocellular Carcinoma and Induces Durable Responses with Immunotherapy” (ACS Pharmacology & Translational Science, 2024)

How the values were obtained:
[1] = tested on: NCI-60 panel cancer cells; assay: NCI-60 panel one-dose screen; assay type: cell-based; conditions: 10 μM
Procedure: To further investigate the cancer cell-type selectivity of these glycosylated HDACi, we screened STR-V-53 (10 μM) in the NCI 60 panel. […] The antiproliferative effect of STR-V-53 against Hep-G2 cells and its lack of growth inhibition in the NCI-60 panel strongly support the HCC cell-selective attribute of STR-V-53 and possibly other lead glycosylated HDACi identified herein.

[2] = Plasma stability (Cyprotex); assay type: in vitro ADME
Procedure: Based on the data from the aforementioned in vitro studies, we selected STR-V-53 as a candidate for further evaluation in xenograft and murine models of HCC. Before the efficacy studies, we first determined the plasma stability (murine and human) and maximum tolerated dose (MTD) of STR-V-53 in healthy C57Bl/6 mice. […]. For MTD determination, STR-V-53 was administered via i.p. injection using a formulation containing excipients found in FDA-approved drugs—dimethylacetamide (DMA)/Cremophor RH 40 (CRH)/Water (10%/20%/70%)—that we developed.[17] […]
Then cells were treated with another 500 µL of 100 ug/mL PI staining at room temperature for 30 min. The cell cycle was analyzed with BD FACS Aria Illu analyzer, and the data were […]
The stability of STR-V-53 in murine and human plasmas was determined through a contract agreement with Cyprotex, an Evotec Company (https://www.cyprotex.com) […]
days in Kolliphor/DMA/water vehicle. We measured body weight and monitored daily food consumption, overall health, and mortality. […]
C57Bl/6 mice, 6–8 weeks old, 3 males and 3 females per treatment group, were injected intraperitoneally with STR-V-53 at […] in Kolliphor/DMA/water vehicle. Eight hours after the injection, organs were harvested and frozen at −80 °C for subsequent quantification by LC-

Hep-G2 cells = assay: RNA-seq differential gene expression vs DMSO control; assay type: cell-based, human
Procedure: To obtain transcriptome level evidence that may shed light on the HCC-selectivity and/or the enhanced potency of the combination of STR-V-53 with anti-PD-1 antibody, we performed RNA sequencing (RNA-seq) analysis on STR-V-53-treated Hep-G2 cells, incubated at IC50 and 2× IC50 for 24 h, relative to the untreated (DMSO) control. We first conducted gene set enrichment analysis (GSEA) using hallmark and gene ontology biological process (GOBP) gene sets to analyze the effect of STR-V-53 vs DMSO-treated control on the Hep-G2 transcriptome.[42],[43] […] Negative enrichment of the G2 M checkpoint pathway supports the finding that STR-V-53 induced S phase arrest in Hep-G2 cells (see Figure 4).
Subsequently, we focused our analysis on specific genes of interest, including gene signatures for HDAC inhibition and immune response pathways. […]
and allowed to grow for 48 hours.
RCF, with this washing step repeated twice. Next, using RNeasy Plus Mini Kit and Qiagen QIAcube […]
determined using a DeNovix spectrophotometer. Subsequently, quality control of the RNA samples was […]
(base call error rate of […]).
FASTQ files of samples were analyzed through the RNA-seq pipeline provided by the Gryder lab1. Reads were aligned to hg38 using STAR version 2.5.3a, and gene expression was calculated as Transcripts per Million mapped reads (TPM) using RSEM version 1.3.3 and filtered for coding genes. Differentially expressed genes lists were generated for each sample by calculating log2 fold change of the averaged sample TPM versus the averaged DMSO-treated control cells TPM and filtering for genes with |log2 fold change| > -1 and false discovery rate < 0.25. Hallmark2 and gene ontology biological processes (GOBP)3 gene set enrichment analysis (GSEA) was performed on the differentially expressed gene lists using the GSEA software (parameters: Run GSEAPreranked, Collapse/Remap- No_Collapse)4. GSEA results were interpreted and visualized using scripts provided by the Gryder lab1.Volcano plots were generated using DESeq2v1.41.1 and visualized with the ggplot2 R packages5,6. […]

**Q.** For `O=C(CCCCCCn1cc(-c2ccc(O[C@H]3O[C@H](CO)[C@@H](O)[C@H](O)[C@H]3O)cc2)nn1)NO` [STR-V-53], which “Mean cell growth in NCI-60 panel” value [1] is on record?
**A.** 99.6%

**Q.** And the half-life ([2]; human plasma)?
**A.** > 1200 min

**Q.** And the half-life ([2]; mouse, murine plasma)?
**A.** 46 min

**Q.** And the “ANP32B log2 fold change” value (Hep-G2 cells; 2× IC50 (20 μM), 24 h)?
**A.** −2.3

**Q.** And the “CCL16 log2 fold change” value (Hep-G2 cells; 2× IC50 (20 μM), 24 h)?
**A.** −1.8

**Q.** What about the “CCL20 log2 fold change” value (Hep-G2 cells; 2× IC50 (20 μM), 24 h) of the same compound?
**A.** 0.9

**Q.** What about the “CCL25 log2 fold change” value (Hep-G2 cells; 2× IC50 (20 μM), 24 h) of the same compound?
**A.** 1.2

**Q.** What about the “CCL26 log2 fold change” value (Hep-G2 cells; 2× IC50 (20 μM), 24 h) of the same compound?
**A.** 2.9

**Q.** And the “CDKN1A (p21) log2 fold change” value (Hep-G2 cells; 2× IC50 (20 μM), 24 h)?
**A.** 3.3

**Q.** And the “CX3CL1 log2 fold change” value (Hep-G2 cells; 2× IC50 (20 μM), 24 h)?
**A.** −1.7

**Q.** What about the “CXCL8 log2 fold change” value (Hep-G2 cells; 2× IC50 (20 μM), 24 h) of the same compound?
**A.** −2.0

**Q.** What about the “CXCL11 log2 fold change” value (Hep-G2 cells; 2× IC50 (20 μM), 24 h) of the same compound?
**A.** 1.3

**Q.** What about the “DKK-1 log2 fold change” value (Hep-G2 cells; 2× IC50 (20 μM), 24 h) of the same compound?
**A.** 6.2

**Q.** And the “MT1X log2 fold change” value (Hep-G2 cells; 2× IC50 (20 μM), 24 h)?
**A.** 3.4

**Q.** What about the “PDCD1 log2 fold change” value (Hep-G2 cells; 2× IC50 (20 μM), 24 h) of the same compound?
**A.** 3.0

**Q.** And the “TUBA1A log2 fold change” value (Hep-G2 cells; 2× IC50 (20 μM), 24 h)?
**A.** 5.4

**Q.** What about the “TYMS log2 fold change” value (Hep-G2 cells; 2× IC50 (20 μM), 24 h) of the same compound?
**A.** −3.6

**Q.** And the “Expression of MHC (HLA) complex, CD8+, and PD-1 (PDCD1) /PD-L1 (CD274) genes” value (Hep-G2 cells; Hep-G2, RNA-seq, 24 h)?
**A.** upregulates

**Q.** What about the “Expression of GLUTs 1, 2, 9, and 14” value (Hep-G2 cells; Hep-G2, within 24 h of uptake) of the same compound?
**A.** downregulation

**Q.** And the “Expression of GLUTs 3, 4, 6, and 12” value (Hep-G2 cells; Hep-G2, within 24 h of uptake)?
**A.** upregulation

**Q.** What about the “ANP32B log2 fold change” value (Hep-G2 cells; IC50 (10 μM), 24 h) of the same compound?
**A.** −1.8

**Q.** And the “CCL16 log2 fold change” value (Hep-G2 cells; IC50 (10 μM), 24 h)?
**A.** −1.0

**Q.** What about the “CCL20 log2 fold change” value (Hep-G2 cells; IC50 (10 μM), 24 h) of the same compound?
**A.** 1.9

**Q.** And the “CCL25 log2 fold change” value (Hep-G2 cells; IC50 (10 μM), 24 h)?
**A.** 0.9

**Q.** And the “CCL26 log2 fold change” value (Hep-G2 cells; IC50 (10 μM), 24 h)?
**A.** 2.1

**Q.** And the “CDKN1A (p21) log2 fold change” value (Hep-G2 cells; IC50 (10 μM), 24 h)?
**A.** 3.1

**Q.** What about the “CX3CL1 log2 fold change” value (Hep-G2 cells; IC50 (10 μM), 24 h) of the same compound?
**A.** −1.5

**Q.** And the “CXCL8 log2 fold change” value (Hep-G2 cells; IC50 (10 μM), 24 h)?
**A.** −1.6

**Q.** What about the “CXCL11 log2 fold change” value (Hep-G2 cells; IC50 (10 μM), 24 h) of the same compound?
**A.** 1.1

**Q.** What about the “DKK-1 log2 fold change” value (Hep-G2 cells; IC50 (10 μM), 24 h) of the same compound?
**A.** 6.5

**Q.** What about the “MT1X log2 fold change” value (Hep-G2 cells; IC50 (10 μM), 24 h) of the same compound?
**A.** 2.9

**Q.** What about the “PDCD1 log2 fold change” value (Hep-G2 cells; IC50 (10 μM), 24 h) of the same compound?
**A.** 2.1

**Q.** What about the “TUBA1A log2 fold change” value (Hep-G2 cells; IC50 (10 μM), 24 h) of the same compound?
**A.** 4.7

**Q.** What about the “TYMS log2 fold change” value (Hep-G2 cells; IC50 (10 μM), 24 h) of the same compound?
**A.** −3.2
